Results on one compound are retold here after patent US20190358176A1, “METHODS OF SENSITIZING CANCER CELLS TO IMMUNE CELL KILLING” (University of Pittsburgh - of the Commonwealth System of …, priority 2017, published 2019).

Each structure is given as a SMILES string.

Series [1] concerns MDA-MB-231 cells. Kind of series: HCA of cell motility and cytotoxicity (Oris Pro 384 cell migration plate). Conditions: 48 hours, at antimigratory concentrations. It counts as cell-based, human. The procedure: HCA of cell motility and cytotoxicity was performed essentially as described (51). MDA-MB-231 cells (15,000/well) were plated in collagen-coated Oris™ Pro 384-well microplates (Platypus Technologies cat # PRO384CMACCS) containing a chemical exclusion zone that dissolves upon cell seeding. Two hours after plating, medium was removed, and cells treated with ten-point, two-fold concentration gradients of test agents. Forty-eight hours after treatment, cells were stained with 10 μg/ml Hoechst 33342 and 1 μg/ml PI in HBSS for 15 min at 37° C. Plates were washed once with PBS and scanned live on the ArrayScan II using a 5× objective. To capture cells that had entered into the exclusion zone, a single field was acquired in the center of the well and nuclei therein enumerated. To assess changes in cell loss, nuclear size, and necrotic cell death, a second scan was performed that captured one field at the edge of the well (51). Parameters exported and plotted were SelectedObjectCountPerValidField (cell density), MEAN ObjectAreaCh1 (nucleus size), and % RESPONDER MeanAvgIntenCh2 (percent PI positive cells based on based on a threshold set with vehicle treated cells).

Series [2] deals with MDA-MB-231 cells. Kind of series: Immune cell killing (sensitization to PBMC-derived LAK). It counts as cell-based, human. Here is the method:
Peripheral blood mononuclear cells were obtained from healthy volunteers with an established IRB approved protocol, separated from heparinized blood on Ficoll-hypaque (GE Healthcare, Chicago) gradients as previously reported (16). Cells were cultured in RPMI 1640 supplemented with 10% FCS, 1% glutamine, 1% penicillin/streptomycin, and stimulated with 6,000 IU of Interleukin 2 for 24 hours. After incubation, cells were washed with PBS and counted. In parallel, MBA-MB-231 cells were pre-treated in a 384 well plate with vehicle or BCI-215 (3 μM). After 24 hours in culture, medium was replaced and PBMC added in two-fold serial dilutions starting with a 50-fold excess of PBMCs in triplicate. After 24 hours of co-culture, cells were fixed with formaldehyde/Hoechst 33342, washed twice with PBS, and imaged on the ArrayScan II. Cancer cells were identified by their larger nuclei compared with PBMC, setting a size gate in the DAPI channel. In experiments with chemotherapeutics, cells carrying a biosensor consisting of a mitochondrial targeting sequence derived from cytochrome c oxidase VIII linked to GFP that is a surrogate for cytochrome c release from mitochondria (17) were pre-treated for 24 hours with cisplatin (2 μM) or doxorubicin (400 nM), exposed to LAK as above, and cancer cells identified and quantified by green fluorescence. Cell densities were normalized to those in the absence of PBMCs. Mean cell densities from multiple independent experiments were averaged and plotted in GraphPad Prism.

Series [3] deals with ERK, JNK/SAPK, p38, MEK1 and MKK4/SEK1 phosphorylation. Kind of series: Western blot of MAPK cascade phosphorylation. It counts as cell-based, human. Conditions: 20 μM. A general note: In western blotting, separated proteins are transferred to a membrane and probed.
The test system of series [4] is zebrafish embryos. The settings on record: prior SAR study (12); cited from earlier work.
Series [5] has as its system MDA-MB-231 cells. The series is described as follows: Detection and quantitation of ROS in cancer cells (CM-H2-DCFDA). Conditions: 50 μM. In kind it is cell-based, human. Here is the method:
Detection and quantitation of ROS in cancer cells was performed as described before (14). Briefly, MDA-MB-231 cells were labeled with Hoechst 33342, loaded with CM-H2-DCFDA (5 μM, 15 min), and treated with test agents for 10 min. After two washes, cells were analyzed for Hoechst and ROS/FITC fluorescence on the ArrayScan II. Cells were classified as positive for ROS if their average FITC intensity exceeded a threshold defined as the average FITC intensity plus one SD from DMSO-treated wells.

For series [6], the system named is DUSP6/MKP-3 and DUSP1/MKP-1. The settings on record: HeLa cells, prior study (12); cited from earlier work.
The test system of series [7] is MDA-MB-231 cells. Kind of series: Colony formation in three dimensional matrigel culture. In kind it is cell-based, human. Here is the method: MDA-MB-231 cells (2000/well) transduced with a biosensor consisting of EGFP with a mitochondrial targeting sequence derived from cytochrome-C oxidase subunit VIII (52) were trypsinized, resuspended in RPMI1640 containing 2% FBS and 2% matrigel, and seeded in 384 well microplates on a 15 μl cushion of undiluted matrigel. After 24 hours, cells were treated with various concentrations of BCI-215 or vehicle (0.2% DMSO). After two days, drug was washed out and cells allowed to expand for an additional three to five days. At the end of the study, medium was replaced with HBSS containing 4 μg/ml PI for 1 hour, and plates scanned live on an ImageXpress Ultra HCS reader, acquiring z-stacks (4× objective, 20 planes, 50 μm) in the green and red channels. Cell numbers were quantified from maximum projection images using the Multiwavelength Cell Scoring application.

For series [8], the system named is MDA-MB-231 cells. The series is described as follows: BCI-215 toxicity in the presence of doxorubicin. The settings on record: doxorubicin 5 μM pre-treated 2-3 hours. It counts as cell-based, human. Here is the method: FIG. 9. Reduced toxicity of BCI-215 in the presence of doxorubicin. MDA-MB-231 carrying the mitochondrial-targeted, GFP-labeled cytochrome C biosensor were treated for 2-3 hours with vehicle (DMSO) or doxorubicin (5 μM) before being exposed to concentration gradients of BCI-215 for 20 h. Plates were scanned live on an ImageXpress high content reader at 20× magnification and GFP positive cells enumerated. Cell densities were normalized to vehicle or doxorubicin alone, respectively. Data are the averages ±SD from three independent experiments, each performed in quadruplicate.

As to `O=C1/C(=C/c2ccccc2)C(NC2CCCCC2)c2cc(Br)ccc21` (stereo not drawn) [BCI-215], the “necrosis (% PI positive cells)” value in series [1] was “no signs of necrosis”. The “difference in killing versus vehicle” value in series [2] (BCI-215 3 μM pre-treatment versus vehicle) is listed as “well over three log differences in killing”. The “LAK number at maximal sensitization” value in series [2] (MDA-MB-231 pre-treated with BCI-215 3 μM for 24 hours) is 1000 LAK/well. Besides, in series [2] (pre-treated 24 hours: BCI-215 3 μM, cisplatin 2 μM, doxorubicin 400 nM), the “sensitization to LAK activity” value was “sensitization at lower effector ratios than cisplatin or doxorubicin”. Moreover, the “activation of upstream kinases MEK1 and MKK4/SEK1” value in series [3] (MDA-MB-231, BT-20 and HeLa, 1 hour) was “activated MEK1 and MKK4/SEK1”. Moreover, the “activation (phosphorylation) of ERK, JNK/SAPK and p38” value in series [3] (MDA-MB-231 cells) was “activated all three kinases”. In addition, the “toxicity to zebrafish embryos” value in series [4] is “non-toxic”. Moreover, the “ROS generation at 50 μM” value in series [5] is “did not generate ROS”. Also, the “effect on ectopic DUSP6/MKP-3 and DUSP1/MKP-1 expression” value in series [6] was “override the effects”. For the same compound, the “cell lysis (PI positivity)” value in series [7] (longer-term 3D matrigel assay) is listed as “pronounced cell lysis”. In addition, in series [7] (matrigel-on-top model, two days of exposure then washout), the colony formation result is given as “inhibited colony formation”. Moreover, in series [8], the “toxicity of BCI-215 after doxorubicin pre-treatment (cell numbers)” value is reported as “reduced the toxicity of BCI-215”.
